Like-named read-outs stand apart in the source and are kept apart here.
Tests used:
male SD rats [1] = experiment: Pharmacological test against hypertriglyceridemia (fructose-loaded rats, serum lipid analysis); format: in vivo; conditions: Rattus norvegicus, rats given aqueous 10% fructose for 2 days, oral, three doses, total dose 300 mg/kg as free carboxylic acid (total dose 300, esters 324-329 mg/kg), blood 48 hours after start
Text: Seven groups of male SD rats, each group consisting of 6 animals, were used as test animals and one group consisting of 12 animals was used as a control. The test groups were made hypertriglyceridemic by administering aqueous 10% by weight solution of fructose for 2 days, while the animals of the control group were given tap water. The administration to the test groups of six pyrazole derivatives and of nicotinic acid was as follows:
Each pyrazole derivative and nicotinic acid was separately dissolved or dispersed in an aqueous 1% solution of carboxymethylcellulose (CMC) at a predetermined concentration, and the thus prepared solution or dispersion was orally administered in three doses, each dose having a volume of 0.5 ml/100 g body weight, a first dose just after the commencement of the test, a second dose 24 hours after the first dose, and a third dose 18 hours after the second dose. The total dosage of each compound was such that each animal received 300 mg/kg of each compound as free carboxylic acid. The rats of the control group were given the aqueous l% solution of CMC only, in three doses at the same intervals as the test groups. All the groups were fed with the same diet during the test period.
After 48 hours of the commencement of the test, a blood sample was collected from each animal by amputation of the carotid artery, and serum was separated from the blood sample and frozen to be kept until lipid analysis.
Serum triglyceride was determined by Acetylacetone Method, and the reduction percentage of lipid was calculated on the basis of the following formula: [formula] wherein the reduction percentage is the average for the test animals in each group.
The content of serum cholesterol was determined by an enzymatic method using cholesteroloxidase, and the reduction percentage of cholesterol was calculated according to the following formula: [formula]

male SD rats [2] = experiment: Pharmacological test against hypercholesterolemia (high cholesterol diet rats); format: in vivo; conditions: high cholesterol diet for 7 days, oral 200 mg/kg/day for 7 consecutive days, blood after 20 hours of fasting; for Reduction Percentage Cholesterol in beta-lipoprotein: beta-lipoprotein-cholesterol (heparin-calcium precipitation); for Reduction Percentage Cholesterol: serum cholesterol
Text: Three groups of male SD rats each weighing about 150g, each group consisting of five rats, were used as test animals and one group consisting of 10 rats was used as control. All animals were fed a high cholesterol diet consisted of 1% cholesterol, 0.2% sodium cholate, 5% olive oil and commercial diet up to total 100% for 7 days. The test compounds of the present invention and clofibrate, as a medicine for comparison, were respectively dissolved or dispersed in an aqueous 1% solution of CMC so that the volume of the solution or dispersion administered each time to an animal was 0.5 ml/l00g body weight, and the solution or dispersion was orally administered so that the amount of administration each time of each pyrazole derivative or of clofibrate was 200 mg/kg body weight. Administration was carried out once a day for 7 consecutive days. Water was taken ad lib. After 20 hours of fasting from the last administration, a blood sample was taken from each animal by amputation of the carotid artery, and the serum separated was frozen until the analysis of cholesterol shown as follows:
The content of serum cholesterol was determined by the above-mentioned method. The beta-lipoprotein- cholesterol was determined by "heparin-calcium precipitation method". The reduction percentage of cholesterol in serum and beta-lipoprotein were calculated in the same manner as above.

Acute toxicity, oral = conditions: mouse, in vivo, male ICR mice, in aqueous 1% CMC, roughly calculated from mortalities at 2.5 and 5.0 g/kg body weight
Experimental: The acute toxicity of the present pyrazole derivatives to mammals was determined by the following method.
Male ICR mice of body weight 21 to 25 g were divided into several groups each consisting of 8 animals and were fasted for 17 to 18 hours and then orally given a pyrazole derivative or nicotinic acid dissolved or dispersed in an aqueous 1% CMC solution at a rate of 0.2 ml/10 g body weight. The administered amount of each compound was 2.5 g/kg body weight or 5.0 g/kg, and from the mortalities at both levels, LD50 was roughly calculated and compared with LD50 of nicotinic acid.

[3] = serum cholesterol, read-out: Reduction Percentage Cholesterol
[4] = serum triglyceride, read-out: Reduction Percentage Triglyceride

CCCCCCCCCCCCCCCCCc1cc(C(=O)OCC)n[nH]1 [ethyl 5-n-heptadecylpyrazole-3-carboxylate]
inhibition in vivo at 300 mg/kg (male SD rats [1]; [3]): 32.9% | inhibition in vivo at 300 mg/kg (male SD rats [1]; [4]): 35.2%

CCCCCCCCCCCCCc1cc(C(=O)O)n[nH]1 [5-n-tridecylpyrazole-3-carboxylic acid]
inhibition in vivo at 300 mg/kg (male SD rats [1]; [3]): 59.8% | inhibition in vivo at 300 mg/kg (male SD rats [1]; [4]): 76.4% | Reduction Percentage Cholesterol in beta-lipoprotein (male SD rats [2]): 54.3 | Reduction Percentage Cholesterol (male SD rats [2]): 45.2

CCCCCCCCCCCCCc1cc(C(=O)NCC(=O)OCC)n[nH]1 [3-N-ethoxycarbonylmethylcarbamoyl-5-n-tridecylpyrazole]
inhibition in vivo at 300 mg/kg (male SD rats [1]; [3]): 34.8% | inhibition in vivo at 300 mg/kg (male SD rats [1]; [4]): 81.4% | Reduction Percentage Cholesterol in beta-lipoprotein (male SD rats [2]): 32.7 | Reduction Percentage Cholesterol (male SD rats [2]): 48.6

CCCCCCCCCCCCCCCCCc1cc(C(=O)O)n[nH]1 [5-n-heptadecylpyrazole-3-carboxylic acid]
inhibition in vivo at 300 mg/kg (male SD rats [1]; [3]): 24.5% | inhibition in vivo at 300 mg/kg (male SD rats [1]; [4]): 30.5%

CCCCCCCCCCCCCCCc1cc(C(=O)O)n[nH]1 [5-n-pentadecylpyrazole-3-carboxylic acid]
inhibition in vivo at 300 mg/kg (male SD rats [1]; [3]): 32.1% | inhibition in vivo at 300 mg/kg (male SD rats [1]; [4]): 62.8%

O=C(O)c1cccnc1 [Nicotinic acid, reference compound]
inhibition in vivo at 300 mg/kg (male SD rats [1]; [3]): 16.4% | inhibition in vivo at 300 mg/kg (male SD rats [1]; [4]): 24.1% | LD50 (Acute toxicity, oral): 4500 mg/kg

CCCCCCCCCCCCCCCc1cc(C(=O)OCC)n[nH]1 [ethyl 5-n-pentadecylpyrazole-3-carboxylate]
inhibition in vivo at 300 mg/kg (male SD rats [1]; [3]): 34.1% | inhibition in vivo at 300 mg/kg (male SD rats [1]; [4]): 67.8%

CCCCCCCCCCCCCc1cc(C(=O)O)nn1C [1-methyl-5-n-tridecylpyrazole-3-carboxylic acid]
inhibition in vivo at 300 mg/kg (male SD rats [1]; [3]): 61.2% | inhibition in vivo at 300 mg/kg (male SD rats [1]; [4]): 75.9% | Reduction Percentage Cholesterol in beta-lipoprotein (male SD rats [2]): 57.3 | Reduction Percentage Cholesterol (male SD rats [2]): 60.1

CCCCCCCCCCCCCc1cc(CO)n[nH]1 [3-hydroxymethyl-5-n-tridecylpyrazole]
inhibition in vivo at 300 mg/kg (male SD rats [1]; [3]): 55.8% | inhibition in vivo at 300 mg/kg (male SD rats [1]; [4]): 78.2% | Reduction Percentage Cholesterol in beta-lipoprotein (male SD rats [2]): 25.2 | Reduction Percentage Cholesterol (male SD rats [2]): 52.7

CCCCCCCCCCCCCc1cc(C(=O)OCC)n[nH]1 [ethyl 5-n-tridecylpyrazole-3-carboxylate]
inhibition in vivo at 300 mg/kg (male SD rats [1]; [3]): 65.1% | inhibition in vivo at 300 mg/kg (male SD rats [1]; [4]): 88%

Source: patent EP0029363A1, “Pyrazole derivatives, process for their preparation and pharmaceutical compositions containing them” (MORISHITA PHARMACEUTICAL CO. LTD., priority 1979, dated 1981)
